The source of these data is patent US12134599B2, “Solid forms” (River 3 Renal Corp., priority 2021, dated 2024).

Data set [1] can be described thus: Dynamic vapor sorption (DVS) analysis. The data set is classed as physicochemical.
The nature of another data set: physchem. As to conditions: 25 °C, water, thermodynamic from solid.
[2] abbreviates: between about 0 to about 90% relative humidity (RH) at 25° C.

Bounds are passed on as bounds.

Method for physchem: About 5 mg of crystalline Form E was weighed in 2 mL glass vials. 20 μL aliquots of each solvent were added to dissolve the compound at 25° C. Vortex and sonication were applied to assist dissolution. The maximum volume of each solvent added was 1 mL.

`O=C(N[C@@H]1CCCC[C@H]1O)c1cnc(OCC(F)(F)F)c(-c2ccc(Cl)c(Cl)c2)c1` [Form D, 5-(3,4-dichlorophenyl)-N-((1R,2R)-2-hydroxycyclohexyl)-6-(2,2,2-trifluoroethoxy)nicotinamide]: in data set [1] (setting [2]), the “DVS total mass change” value was “about 20 wt. %”.
On the same count and under the same terms, as for `O=C(N[C@@H]1CCCC[C@H]1O)c1cnc(OCC(F)(F)F)c(-c2ccc(Cl)c(Cl)c2)c1` [Form I, 5-(3,4-dichlorophenyl)-N-((1R,2R)-2-hydroxycyclohexyl)-6-(2,2,2-trifluoroethoxy)nicotinamide], the entry is “about 10 wt. %”; as for `O=C(N[C@@H]1CCCC[C@H]1O)c1cnc(OCC(F)(F)F)c(-c2ccc(Cl)c(Cl)c2)c1` [Form A, 5-(3,4-dichlorophenyl)-N-((1R,2R)-2-hydroxycyclohexyl)-6-(2,2,2-trifluoroethoxy)nicotinamide], “about 1.8 wt. %”.
In the case of `O=C(N[C@@H]1CCCC[C@H]1O)c1cnc(OCC(F)(F)F)c(-c2ccc(Cl)c(Cl)c2)c1` [Form E, 5-(3,4-dichlorophenyl)-N-((1R,2R)-2-hydroxycyclohexyl)-6-(2,2,2-trifluoroethoxy)nicotinamide], in data set [1] (setting [2]), the “DVS total mass change” value was “about 0.3 wt. %”. The solubility in the data set “physchem” is less than 5000 µg/mL.
As for `O=C(N[C@@H]1CCCC[C@H]1O)c1cnc(OCC(F)(F)F)c(-c2ccc(Cl)c(Cl)c2)c1` [Form B, 5-(3,4-dichlorophenyl)-N-((1R,2R)-2-hydroxycyclohexyl)-6-(2,2,2-trifluoroethoxy)nicotinamide], the “DVS total mass change” value in data set [1] (setting [2]) is “about 0.3 wt. %”.
The same measure, in the same setting: as for `O=C(N[C@@H]1CCCC[C@H]1O)c1cnc(OCC(F)(F)F)c(-c2ccc(Cl)c(Cl)c2)c1` [Form 2, 5-(3,4-dichlorophenyl)-N-((1R,2R)-2-hydroxycyclohexyl)-6-(2,2,2-trifluoroethoxy)nicotinamide], the entry is “about 2.1 wt. %”.
For the compound `O=C(N[C@@H]1CCCC[C@H]1O)c1cnc(OCC(F)(F)F)c(-c2ccc(Cl)c(Cl)c2)c1` [Form H, 5-(3,4-dichlorophenyl)-N-((1R,2R)-2-hydroxycyclohexyl)-6-(2,2,2-trifluoroethoxy)nicotinamide], the “DVS total mass change” value in data set [1] (between about 0 to about 70% relative humidity (RH) at 25° C.) is “about 2.5 wt. %”; in data set [1] (between about 70 to about 90% relative humidity (RH) at 25° C.), “about 25 wt. %”.

The solubility is the dissolved amount per volume that the medium holds.
